For this assay, the target named is T1, DRD1 (Homo sapiens, UniProt P21728).
T1 construct: purchased Promega (in-house HiBiT-GPCR construct library, NanoBRET)
Nature of the assay: NanoBRET screen HiBiT-DRD1 in HEK293. The assay is classed as binding. Here is the method: Each tracer candidate was screened across the entire library of HiBiT-GPCR constructs using NanoBRET as the detection modality. As depicted in Figure 4A, the specificity of interactions was evaluated through decrease in BRET due to competitive displacement of a bound tracer by excess parental compound. Each tracer was analyzed for binding to each HiBiT-GPCR fusion in the absence and in the presence of competing parental compound. Briefly, HEK293 cells were transfected with HiBiT-GPCR constructs diluted into promoterless DNA to reduce expression and maximize translocation to the cell surface. Each tracer candidate was then screened at concentrations of 1 μM and 0.1 μM across cells expressing these fusions. Cells were treated for 1.5 h with tracer either alone or in the presence of 20 μM competing parental compound (i.e., control). BRET was measured upon addition of purified LgBiT and subsequent complementation with HiBiT genetically fused to a GPCR. The specificity of interactions was assessed through a decrease in BRET signal due to competitive displacement of the bound tracer. To further gauge the robustness of these interactions, the fold response over the control (i.e., BRETtracer/BRETcontrol) was calculated. We chose a 1.5-fold response, which translates to ≥7-fold signal over noise as the minimal threshold required to score an interaction as positive.
HiBiT-GPCR DNA constructs were diluted in 10 mM Tris pH 8 to a final concentration of 0.01 μg/μL, arrayed in 96-well plates and stored at −20 °C. For transfection, HEK293 cells were suspended in Opti-MEM (without phenol red) supplemented with 2% fetal bovine serum (Seradigm) and 100 units/mL penicillin–streptomycin (Gibco) at a final concentration of 220,000 cells/mL and dispensed into white 96-well plates at 90 μL/well. Subsequent transfections and screens were carried using an Agilent Bravo Automated Liquid Handling Platform. First, the 96-well HiBiT DNA arrays were diluted 25-fold in Opti-MEM (without serum or phenol red) to a final concentration of 0.0004 μg/μL and 20 μL of the diluted DNAs were transferred into new 96-well plates. Next, promoterless carrier DNA (1 μg/μL) was diluted 25-fold (0.04 μg/μL) and then dispensed into the diluted arrays at 20 μL/well. Following brief mixing, Viafect transfection reagent (Promega) diluted 16-fold into Opti-MEM was dispensed into the plates at 40 μL/well. After mixing by pipetting, plates were incubated for 10 min on the pipetting station deck. The DNA-transfection reagent complexes were then added to plates containing cells. To facilitate the screen, 10 μL of DNA-transfection reagent complexes were added in duplicates to the top 4 and bottom 4 rows, resulting in two identical 48-well arrays per plate. Plates with transfected cells were incubated for 18–20 h at 37 °C/5% CO2. A screen of each tracer across the entire library using two different concentrations requires duplicate plates of transfected cells. Depending on the number of tracers being screened, transfections can be scaled up using the same ratios. The next day, for each tracer, four 20× screening solutions in tracer dilution buffer (Promega) were prepared: two duplicates at final concentration of 20 μM and two duplicates at a final concentration of 2 μM. […] The four resulting solutions were diluted 4-fold in Opti-MEM without serum or phenol red to generate 5× solutions (5 µM and 0.5 µM tracer +/− 100 μM competing compound). To screen the library, a BioTek MultiFlo FX liquid dispenser was used to dispense 22.5 µL of tracer solution to the top 4 rows and 22.5 µL tracer + competing compound solution to the 4 bottom rows. Plates were briefly mixed on an orbital shaker and incubated for 1.5 h at room temperature. […] Plates were briefly mixed on an orbital shaker and incubated for 15 min to allow complementation.
(BRET reads energy transfer from a luciferase to a nearby fluorophore.)

Each structure is given as a SMILES string.

T1 sequence (P21728 whole entry): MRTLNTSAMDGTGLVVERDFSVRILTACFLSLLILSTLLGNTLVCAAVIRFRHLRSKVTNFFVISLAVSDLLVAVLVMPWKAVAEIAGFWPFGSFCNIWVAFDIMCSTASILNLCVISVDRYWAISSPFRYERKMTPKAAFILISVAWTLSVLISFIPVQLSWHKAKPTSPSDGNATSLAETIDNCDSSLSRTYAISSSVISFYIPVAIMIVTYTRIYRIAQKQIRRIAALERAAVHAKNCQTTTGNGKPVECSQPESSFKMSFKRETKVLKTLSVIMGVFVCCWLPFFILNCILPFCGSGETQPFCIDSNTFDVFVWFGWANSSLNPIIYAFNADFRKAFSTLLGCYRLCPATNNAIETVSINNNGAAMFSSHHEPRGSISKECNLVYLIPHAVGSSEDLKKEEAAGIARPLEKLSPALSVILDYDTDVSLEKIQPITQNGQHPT

In the case of `O=C(CCc1ccc2n1[B-](F)(F)[N+]1=C(c3ccc[nH]3)C=CC1=C2)NCc1ccc(C(=O)NCCOCCC(=O)N[C@@H]2CC[C@@]3(O)[C@H]4Cc5ccc(O)c6c5[C@@]3(CCN4CC3CC3)[C@H]2O6)cc1` [Naltrexone-3-NB590], the “NanoBRET Fold Response” value is, setting by setting: (DRD1, tracer 0.1μM) 0.98; (DRD1, tracer 1μM) 1.03.

For `O=C(CCOCCOCCOCCOCCNC(=O)CCc1ccc2n1[B-](F)(F)[N+]1=C(c3ccc[nH]3)C=CC1=C2)NCCCN1CCN(C2=Nc3cc(Cl)ccc3Nc3ccccc32)CC1` [Clozapine-a-2-NB590], the “NanoBRET Fold Response” value (DRD1, 0.1μM tracer) is given as 3.20 and the “NanoBRET Fold Response” value (DRD1, 1μM tracer) was 3.32.

Take `CCOC(=O)c1cc(C#N)c(N2CCC(C(=O)NS(=O)(=O)Cc3ccccc3/C=C/C(=O)NCCNC(=O)CCc3ccc4n3[B-](F)(F)[N+]3=C(c5ccc[nH]5)C=CC3=C4)CC2)nc1C` [AZD1283-1-NB590]: the “NanoBRET Fold Response” value was determined as 1.07 (DRD1, 0.1μM) and 1.10 (DRD1, 1μM).

As to `COc1ccc2[nH]c(-c3ccc(CNC(=O)CCOCCOCCOCCOCCNC(=O)CCc4ccc5n4[B-](F)(F)[N+]4=C(c6ccc[nH]6)C=CC4=C5)cc3)c(CCNC(C)=O)c2n1` [AzomelatoninICO9-2-NB590], the “NanoBRET Fold Response” value reads like this: (0.1μM tracer) 0.98; (1μM tracer) 0.94.

For the compound `CCCn1c(=O)c2[nH]c(-c3ccc(OCC(=O)NCCNC(=O)CCOCCNC(=O)c4ccc(CNC(=O)CCc5ccc6n5[B-](F)(F)[N+]5=C(c7ccc[nH]7)C=CC5=C6)cc4)cc3)nc2n(CCC)c1=O` [XAC-3-NB590], the “NanoBRET Fold Response” value (DRD1, tracer 0.1μM) stood at 0.90 and the “NanoBRET Fold Response” value (DRD1, tracer 1μM) was 1.11.

As for `COc1ccccc1N1CCN(CCCCN2C(=O)c3ccc(CNC(=O)CCOCCNC(=O)c4ccc(CNC(=O)CCc5ccc6n5[B-](F)(F)[N+]5=C(c7ccc[nH]7)C=CC5=C6)cc4)cc3C2=O)CC1` [NAN-190-3-NB590], the “NanoBRET Fold Response” value runs as follows: (DRD1, tracer 0.1μM) 1.75; (DRD1, tracer 1μM) 1.32.

`CN(CCC=C1c2ccccc2CCc2ccccc21)C(=O)CCOCCOCCOCCOCCNC(=O)CCc1ccc2n1[B-](F)(F)[N+]1=C(c3ccc[nH]3)C=CC1=C2` [Amitriptyline-e-2-NB590]: the “NanoBRET Fold Response” value (tracer at 1μM) was 1.12.

`O=C(CCc1ccc2n1[B-](F)(F)[N+]1=C(c3ccc[nH]3)C=CC1=C2)NCc1ccc(C(=O)NCCOCCOCCNCC(O)COc2cccc3ccccc23)cc1` (stereo not drawn) [Propranolol-3-NB590]: the “NanoBRET Fold Response” value is, setting by setting: (DRD1, 0.1μM) 1.01; (DRD1, 1μM) 0.98.

For `COc1ccc2c(n1)c(CCNC(C)=O)cn2CCNC(=O)CCc1ccc2n1[B-](F)(F)[N+]1=C(c3ccc[nH]3)C=CC1=C2` [Azamelatonin-1-NB590], the “NanoBRET Fold Response” value is, setting by setting: (0.1μM tracer) 0.92; (1μM tracer) 0.96.

For the compound `O=C(CCOCCOCCOCCOCCNC(=O)CCc1ccc2n1[B-](F)(F)[N+]1=C(c3ccc[nH]3)C=CC1=C2)NCCCN1CCN(C2=Nc3ccccc3Oc3ccc(Cl)cc32)CC1` [Loxapine-a-2-NB590], the “NanoBRET Fold Response” value by setting is: (DRD1, tracer 0.1μM) 1.65; (DRD1, tracer 1μM) 2.64.

Take `N#CN/C(=N\CCNC(=O)c1ccc(N)cc1)NCCCOc1cccc(CN2CCCCC2)c1` [Aminopotentidine (unmodified)]: the “NanoBRET Fold Response” value runs as follows: (DRD1, other tracers/Aminopotentidine (unmodified), 0.1μM) 1.10; (DRD1, other tracers/Aminopotentidine (unmodified), 1μM) 1.11.

Take `COc1ccccc1N1CCN(CCCCN2C(=O)c3ccc(CNC(=O)CCOCCOCCOCCOCCNC(=O)CCc4ccc5n4[B-](F)(F)[N+]4=C(c6ccc[nH]6)C=CC4=C5)cc3C2=O)CC1` [NAN-190-2-NB590]: the “NanoBRET Fold Response” value reads like this: (DRD1, tracer 0.1μM) 1.23; (DRD1, tracer 1μM) 1.53.

As for `CC(C)N(CC[C@H](c1ccccc1)c1cc(CCNC(=O)c2ccc(CNC(=O)CCc3ccc4n3[B-](F)(F)[N+]3=C(c5ccc[nH]5)C=CC3=C4)cc2)ccc1O)C(C)C` [Tolterodine-BZ-NB590], the “NanoBRET Fold Response” value worked out at 1.28 (DRD1, tracer 0.1μM) and 1.39 (DRD1, tracer 1μM).

As for `O=C(CCc1ccc2n1[B-](F)(F)[N+]1=C(c3ccc[nH]3)C=CC1=C2)NCCOCCOCCNC(=O)OCCOCCN1CCN(C2=Nc3ccccc3Sc3ccccc32)CC1` [Quetiapine-a-2-NB590], the “NanoBRET Fold Response” value stood at 1.65 (DRD1, tracer 0.1μM) and 1.97 (DRD1, tracer 1μM).

`CC(C)N(CC[C@H](c1ccccc1)c1cc(CCNC(=O)CCOCCOCCOCCOCCNC(=O)CCc2ccc3n2[B-](F)(F)[N+]2=C(c4ccc[nH]4)C=CC2=C3)ccc1O)C(C)C` [Tolterodine-2-NB590]: the “NanoBRET Fold Response” value runs as follows: (DRD1, tracer 0.1μM) 0.94; (DRD1, tracer 1μM) 1.01.

Consider `CN(C)CCC=C1c2ccccc2CCc2ccc(C(=O)NCCNC(=O)CCOCCOCCOCCOCCNC(=O)CCc3ccc4n3[B-](F)(F)[N+]3=C(c5ccc[nH]5)C=CC3=C4)cc21` [Amitriptyline-a-2-NB590], for which the “NanoBRET Fold Response” value runs as follows: (tracer at 0.1μM) 1.04; (tracer at 1μM) 1.23.

With `Cc1cc2c(s1)Nc1ccccc1N=C2N1CCN(CCCNC(=O)CCOCCOCCOCCOCCNC(=O)CCc2ccc3n2[B-](F)(F)[N+]2=C(c4ccc[nH]4)C=CC2=C3)CC1` [Olanzapine-a-2-NB590], the “NanoBRET Fold Response” value was 2.04 (DRD1, tracer 0.1μM) and 3.08 (DRD1, tracer 1μM).

Take `N#CN=C(NCCCOc1cccc(CN2CCCCC2)c1)NCCNC(=O)CCOCCOCCOCCOCCNC(=O)CCc1ccc2n1[B-](F)(F)[N+]1=C(c3ccc[nH]3)C=CC1=C2` [Aminopotentidine-2-NB590]: the “NanoBRET Fold Response” value (DRD1, tracer 0.1μM) stood at 1.04 and the “NanoBRET Fold Response” value (DRD1, tracer 1μM) amounted to 1.06.

As for `Cc1nc2n(c(=O)c1CCN1CCC(c3noc4cc(F)ccc34)CC1)CCCC2OC(=O)NCCOCCOCCOCCOCCNC(=O)CCc1ccc2n1[B-](F)(F)[N+]1=C(c3ccc[nH]3)C=CC1=C2` (stereo not drawn) [Risperidone-2-NB590], the “NanoBRET Fold Response” value reads like this: (DRD1, tracer 0.1μM) 2.20; (DRD1, tracer 1μM) 2.38.

In the case of `CN(C)CCC=C1c2ccccc2CCc2ccc(C(=O)NCCNC(=O)CCOCCOCCOCCOCCNC(=O)CCc3ccc4n3[B-](F)(F)[N+]3=C(c5ccc[nH]5)C=CC3=C4)cc21` [Amitriptyline-b-2-NB590], the “NanoBRET Fold Response” value by setting is: (tracer at 0.1μM, listed as amitriptyline-b-2-NB590) 1.39; (tracer at 1μM, listed as amitriptyline-b-2-NB590) 1.97.
